Reference: patent US11932595B2, “VDR-silent vitamin D derivative as inhibitors of SREBP and pharmaceutical use thereof” (KYOTO UNIVERSITY, priority 2020, dated 2024)

Experiments:
SREBP = SREBP luciferase reporter assay (pSRE-Luc) in CHO-K1 cells; type: cell-based; settings: CHO-K1 cells
Experimental: Cell Culture: CHO-K1 cells were maintained in medium A (1:1 mixture of Ham's F-12 medium and DMEM, supplemented with 100 units/mL penicillin, 100 μg/mL streptomycin sulfate, and 5% [v/v] fetal bovine serum) at 37° C. in a humidified 5% CO2 incubator.
CHO-K1 cells were seeded into 96-well plates at 8×10^3 cells per well in medium A and incubated for 24 h. For SREBP reporter assay, cells were co-transfected with an SRE-1-driven luciferase reporter plasmid (pSRE-Luc) and an actin promoter-driven β-galactosidase expression plasmid (pAc-13-gal) at a 20:1 ratio, using FuGENE HD Transfection Reagent (Promega) according to the manufacturer's protocol.
After 20 h, the medium was changed to medium B (1:1 mixture of Ham's F-12 medium and DMEM, supplemented with 100 units/mL penicillin, 100 μg/mL streptomycin sulfate, 5% [v/v] lipid-depleted serum, 50 μM compactin (Tokyo Chemical Industry), and 50 μM lithium mevalonate (Sigma-Aldrich) containing the specific test compounds. After 24 h incubation, the cells in each well were lysed with 100 μL of 1× Reporter Lysis Buffer (Promega), and 50 μL of aliquots were used to measure luciferase and 13-gal activities. Luciferase activity was measured using the Steady-Glo Luciferase Assay System (Promega), and 13-gal activity was measured using the 13-Galactosidase Enzyme Assay System (Promega). Luciferase activity was normalized to 13-gal activity.
[…] The same experiment using of 25(OH)D3 (1) was performed as control. Values are mean±SD.

ob/ob mice = assay: Long-term in vivo model of fatty liver in ob/ob mice
Experimental: (§1) C57BL/6 and oh/oh mice were purchased from CLEA Japan and Charles River Japan, Inc., respectively. Animal experiments were carried out at the University of Tokyo and Charles River Laboratories. Low fat, high carbohydrate diet, lacking vitamin D was custom made by Research Diets, Inc. Compounds disclosed herein and 25(OH)D3 were dissolved in ethanol/Tween 20 (9:1) to obtain stock solution and then diluted 10-fold with PBS immediately before administration to mice.
(§2) Following sacrifice, mouse livers were fixed in 10% neutral-buffered formalin, embedded in paraffin, sectioned, and stained with H&E. Hepatic lipids were extracted with chloroform/methanol (2:1 v/v), and TG and cholesterol contents were measured with Triglyceride Reagent Set (Pointe Scientific) and Cholesterol E (Wako), respectively. Serum levels of ALT, TG, glucose, cholesterol, and calcium were measured in SRL Inc. (Tokyo). All experiments were approved by the Ethics Committee for Animal Experimentation of the University of Tokyo and Charles River Laboratories Japan, and were conducted in accordance with the Guidelines for the Care and Use of Laboratory Animals.
Six-week-old ob/ob mice were treated with 10 mg/kg KK-052, 10 mg/kg 25(OH)D3, or vehicle control 5 times per week for 4 weeks (FIG. 7A).
Body weights of ob/ob mice were measured and data are given as means±SEM (25(OH)D3, n=5; others, n=8), *p<0.05 (FIG. 7B).
Hepatic TG and cholesterol contents were measured in KK-052- or vehicle-treated ob/ob mice (means±SEM), *p<0.05 (FIG. 7D).
Serum levels of ALT, TG, total cholesterol, glucose, and calcium were measured in KK-052- or vehicle-treated ob/ob mice (means±SEM), *p<0.05 (FIG. 7E).

[1] = Short-term in vivo model: serum calcium levels; set-up: species or system mice; settings: 10 mg/kg intraperitoneally, after 4 days, n=3, FIG. 5D
Experimental: To quickly and simultaneously examine their SREBP inhibitory activity and VDR-derived calcemic activity in vivo, a short-term in vivo screening system of mice was established. With reference to the previous report (Horton, J. D. et al. Proc. Natl. Acad. Sci. U.S.A. 1998, 95, 5987-5992.), mice were fasted for 48 hours then refed a special diet (low fat, high carbohydrate diet, lacking in vitamin D) for 48 hours before sacrifice.
as §1
10 mg/kg compounds or vehicle control were administered intraperitoneally once every 24 hours during the fasting and refeeding.
as §2
Serum calcium levels in the mice treated with vehicle, compounds, or 25(OH)D3 were determined (means±SEM, n=3 per group), *p<0.05 (FIG. 5D).

[2] = 10 mg/kg 5 times per week for 4 weeks
[3] = ob/ob mice, versus vehicle, FIG. 7D

serum calcium levels versus vehicle-treated group (ob/ob mice; ob/ob mice, 10 mg/kg, 4 weeks, FIG. 7E) | SMILES | SREBP inhibitory activity (expression of SREBP-responsive luciferase reporter gene) (SREBP; 5 μM compound, lipid-free medium, 24 h, FIGS. 1 and 3) | general condition of treated ob/ob mice (ob/ob mice; [2]) | serum calcium levels [1] | inhibition of activation of the SREBP reporter gene, concentration dependence (SREBP; FIG. 6A) | weight gain (ob/ob mice; ob/ob mice, 10 mg/kg 5 times per week for 4 weeks, FIG. 7B) | liver steatosis (H&E histology) (ob/ob mice; ob/ob mice, 10 mg/kg, 4 weeks, FIG. 7C) | serum level of TG (ob/ob mice; ob/ob mice, FIG. 7E) | serum level of alanine aminotransferase (ALT) (ob/ob mice; ob/ob mice, FIG. 7E) | serum level of glucose (ob/ob mice; ob/ob mice, FIG. 7E) | hepatic cholesterol content (ob/ob mice; [3]) | hepatic triglyceride (TG) content (ob/ob mice; [3])
 | C=C1CC[C@H](O)C/C1=C/C=C1\CCC[C@]2(C)[C@@H]([C@H](C)CCCC(C)(C)O)CC[C@@H]12 [25(OH)D3, 25-hydroxyvitamin D3, reference compound] | substantial inhibitory activity | became sick due to hypercalcemia and euthanized at 1 week | markedly increased |  |  |  |  |  |  |  | 
no detectable difference | C[C@H](CCC(F)(F)C(C)(C)O)[C@H]1CC[C@H]2/C(=C/Cn3nnnc3-c3ccccc3)CCC[C@]12C [Compound 50, (R)-3,3-Difluoro-2-methyl-6-{(1R,3aS,7aR,E)-7a-methyl-4-[2-(5-phenyl-1H-tetrazol-1-yl)ethylidene]octahydro-1H-inden-1-yl}heptan-2-ol] |  | appeared healthy until the end of the experiments | no detectable increase | concentration-dependent manner comparable to 25(OH)D3 | slightly but significantly decreased | attenuated | significantly decreased | significantly decreased | significantly decreased | significantly decreased | significantly decreased
